Tests used:
[1] = tested on: CD19-negative cell line (Colo 205); test: MTT-based cytotoxicity of huB4-DM4, Colo 205 cells; format: cell-based, human; details: MTT-based assay, non-target Colo 205 cells, FIG. 12
Procedure: (§1) The cytotoxicity of huB4-DM4 toward CD19-expressing cells (Ramos) compared to a CD19-negative cell line (Colo 205) was tested using an MTT-based assay, where cell killing activity is determined by quantifying the number of viable cells that remain following treatment with conjugate. Viable cell number is determined by spectrophotometric quantitation following incubation of the cells with the vital dye MTT.

[2] = tested on: human Ramos tumor xenografts; test: In vivo efficacy of huB4-DM4 against Ramos xenografts in SCID mice; set-up: species or system mouse
Procedure: The efficacy of huB-DM4 in vivo was determined using SCID mice bearing established human Ramos tumor xenografts. Ramos cells were injected subcutaneously and tumors were allowed to grow to an average size of 100 mm^3. Dosage is expressed as μg DM4 in the conjugate, which corresponds to an antibody dose of approximately 44 μg antibody per μg of DM4. Tumor volume was measured as an indication of treatment efficacy and mouse body weight was monitored to indicate toxicity due to treatment. […] Animals remain without measurable disease for about 35 days in the […] treatment group, and for more than 55 days in the two highest dose groups.

CD19 = target: T1, CD19 (Homo sapiens, UniProt P15391); test: Binding affinity of huB4 conjugate by flow cytometry; details: after conjugation
T1 sequence (P15391 20-556): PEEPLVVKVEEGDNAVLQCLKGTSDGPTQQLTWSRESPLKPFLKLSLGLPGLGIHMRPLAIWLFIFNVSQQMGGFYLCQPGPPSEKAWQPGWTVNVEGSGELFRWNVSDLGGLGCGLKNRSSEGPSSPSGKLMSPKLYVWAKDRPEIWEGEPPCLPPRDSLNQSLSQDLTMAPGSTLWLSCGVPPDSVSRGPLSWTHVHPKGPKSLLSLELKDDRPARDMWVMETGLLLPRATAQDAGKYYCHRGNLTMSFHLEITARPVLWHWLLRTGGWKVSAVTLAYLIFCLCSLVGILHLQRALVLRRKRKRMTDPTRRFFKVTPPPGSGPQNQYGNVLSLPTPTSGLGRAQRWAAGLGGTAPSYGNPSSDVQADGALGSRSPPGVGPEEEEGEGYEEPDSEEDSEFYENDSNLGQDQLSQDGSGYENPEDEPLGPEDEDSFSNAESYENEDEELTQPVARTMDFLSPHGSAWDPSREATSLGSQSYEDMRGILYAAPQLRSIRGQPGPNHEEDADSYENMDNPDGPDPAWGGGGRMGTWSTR
Procedure: A solution of huB4 antibody at a concentration of 20 mg/mL was incubated for 1.5 h with an 8-fold molar excess of SSNPB [sulfosuccinimidyl 4-(5′-nitro-2′-pyridyldithio)butyrate] in 50 mM potassium phosphate buffer, pH 6.5 containing 2 mM ethylenediaminetetraacetic acid (buffer A) with 5% dimethylacetamide. The modified antibody was purified by passage through a Sephadex G25 gel filtration column equilibrated in buffer A and the concentration of the purified antibody was determined spectrophotometrically using the extinction coefficient for the antibody at 280 nm (199,560 M^−1 cm^−1). The modified antibody was diluted to 8 mg/mL with buffer A and incubated for 3 h at ambient temperature with a 1.7-fold molar excess of DM4, which was added to the reaction mixture as a stock solution in dimethylacetamide (final concentration of dimethylacetamide was 3% v/v). […] The concentration of conjugate was determined spectrophotometrically using the know extinction coefficients for antibody (ε280 nm: 199,560 M^−1 cm^−1; ε252 nm: 67,850 M^−1 cm^−1) and DM4 (ε280 nm=5,700 M^−1 cm^−1, ε252 […]=26,790 M^−1 cm^−1). […] The amount of drug associated with the antibody that was not linked covalently (free drug) was determined by HPLC analysis and was approximately 2% of the total linked drug.

[3] = tested on: CD19-positive Ramos human tumor cells; test: MTT-based cytotoxicity of huB4-DM4, Ramos cells; format: cell-based; details: MTT-based assay, FIG. 12
Procedure: as §1

## huB4-DM4: huB4 (anti-CD19) antibody modified with SSNPB and linked to DM4, average of 4.0 DM4 molecules per antibody molecule
[1]
  toxicity toward CD19-negative cells: No significant toxicity
[2]; SCID mice, single i.v. injection, FIG. 13b
  toxicity as judged by changes in body weight: very little if any toxicity
[2]; SCID mice, single i.v. injection, doses above 50 μg/kg
  tumor response: complete regression of the tumors in all animals
[2]; single i.v. injection, 100 mg/kg treatment group
  time without measurable disease: about 35 days
[2]; single i.v. injection, two highest dose groups
  time without measurable disease: more than 55 days
[2]; subcutaneous Ramos tumor model, FIG. 13a
  anti-tumor activity: high anti-tumor activity in a dose-dependent manner
[2]; subcutaneous Ramos tumor model, doses that are non-toxic, FIG. 13a,b
  tumor response: Complete tumor regressions and cures
CD19
  binding affinity compared with unmodified antibody: comparable to the unmodified antibody
[3]
  cell killing activity toward Ramos cells: potent cell killing activity

— patent publication US8841425B2, “Cytotoxic agents comprising new maytansinoids” (ImmunoGen, Inc., priority 2003, dated 2014)
